Test results published in ChEMBL document CHEMBL4680289, “10-(4-Phenylpiperazine-1-carbonyl)acridin-9(10H)-ones and related compounds: Synthesis, antiproliferative activity and inhibition of tubulin polymerization” (Bioorg Med Chem Lett, 2021).
Active and inactive are the calls of the source. No cut-off for these calls is given here.

Tests used:
[1] = system: K562; test: Induction of apoptosis in human K562 cells assessed as necrotic cells at 0.1 uM measured after 6 hrs by Annexin V-FITC/7-AAD staining based flow cytometric analysis relative to control; assay type: functional
[2] = Inhibition of porcine brain tubulin polymerization assessed as reduction in tubulin assembly at 37 degreeC measured after 40 mins in presence of GTP by turbidimetric analysis; set-up: species or system Sus scrofa
[3] = system: K562; test: Induction of apoptosis in human K562 cells assessed as late apoptotic cells at 0.1 uM measured after 12 hrs by Annexin V-FITC/7-AAD staining based flow cytometric analysis relative to control; assay type: functional
[4] = system: K562; test: Induction of apoptosis in human K562 cells at 30 nM measured after 48 hrs by Annexin V-FITC/7-AAD staining based flow cytometric analysis; assay type: functional, cell-based
[5] = system: K562; test: Induction of apoptosis in human K562 cells assessed as viable cells at 0.1 uM measured after 12 hrs by Annexin V-FITC/7-AAD staining based flow cytometric analysis relative to control; assay type: functional; conditions: read-out: Activity
[6] = system: K562; test: Induction of apoptosis in human K562 cells assessed as early apoptotic cells at 0.1 uM measured after 72 hrs by Annexin V-FITC/7-AAD staining based flow cytometric analysis relative to control; assay type: functional
[7] = system: K562; test: Induction of apoptosis in human K562 cells assessed as necrotic cells at 0.01 micromol/L measured after 48 hrs by Annexin V-FITC/7-AAD staining based flow cytometric analysis (reference value: 0.46 %); assay type: functional; conditions: dose 0.01 µmol/L, at 0.01 µM
[8] = system: K562; test: Induction of apoptosis in human K562 cells assessed as late apoptotic cells at 0.01 micromol/L measured after 48 hrs by Annexin V-FITC/7-AAD staining based flow cytometric analysis (reference value: 2.49 %); assay type: functional; conditions: dose 0.01 µmol/L, at 0.01 µM
[9] = system: K562; test: Induction of apoptosis in human K562 cells assessed as late apoptotic cells at 1 micromol/L measured after 48 hrs by Annexin V-FITC/7-AAD staining based flow cytometric analysis (reference value: 2.49 %); assay type: functional; conditions: dose 1 µmol/L, at 1 µM
[10] = system: K562; test: Cell cycle arrest in human K562 cells assessed as increase in cell accumulation at G2/M phase measured after 18 hrs by propidium iodide/RNase FACSCalibur staining based flow cytometry; assay type: functional; conditions: dose 0.003-1 µmol/L
[11] = system: K562; test: Induction of apoptosis in human K562 cells assessed as necrotic cells at 0.1 micromol/L measured after 48 hrs by Annexin V-FITC/7-AAD staining based flow cytometric analysis (reference value: 0.46 %); assay type: functional; conditions: dose 0.1 µmol/L, at 0.1 µM
[12] = system: K562; test: Induction of apoptosis in human K562 cells assessed as viable cells at 0.1 micromol/L measured after 48 hrs by Annexin V-FITC/7-AAD staining based flow cytometric analysis (reference value: 92.85 %); assay type: functional; conditions: K562, 48 h, dose 0.1 µmol/L, read-out: Activity
[13] = biological target: Tubulin beta (Homo sapiens) (UniProt P68371+Q9H4B7+Q13509+P04350+Q3ZCM7+P07437+Q13885+Q9BVA1+Q9BUF5+A6NNZ2); test: Inhibition of N,N'-Ethylenebis(iodoacetamide) binding to beta-tubulin colchicine binding site in human K562 cells assessed as reduction in EBI/beta-tubulin adduct formation at 1 to 10 uM preincubated for 2.5 hrs followed by EBI addition and measured after 1.5 hrs by Western blot analysis; assay type: cell-based; conditions: dose 1-10 µM, time 4.0 hrs
[14] = system: K562; test: Induction of apoptosis in human K562 cells assessed as necrotic cells at 0.1 uM measured after 72 hrs by Annexin V-FITC/7-AAD staining based flow cytometric analysis relative to control; assay type: functional
[15] = system: K562; test: Induction of apoptosis in human K562 cells assessed as late apoptotic cells at 0.3 micromol/L measured after 48 hrs by Annexin V-FITC/7-AAD staining based flow cytometric analysis (reference value: 2.49 %); assay type: functional; conditions: dose 0.3 µmol/L, at 0.3 µM
[16] = system: K562; test: Induction of apoptosis in human K562 cells assessed as early apoptotic cells at 0.01 micromol/L measured after 48 hrs by Annexin V-FITC/7-AAD staining based flow cytometric analysis (reference value: 4.2 %); assay type: functional; conditions: dose 0.01 µmol/L, at 0.01 µM
[17] = system: K562; test: Induction of apoptosis in human K562 cells assessed as viable cells at 0.3 micromol/L measured after 48 hrs by Annexin V-FITC/7-AAD staining based flow cytometric analysis (reference value: 92.85 %); assay type: functional; conditions: K562, 48 h, dose 0.3 µmol/L, read-out: Activity
[18] = system: K562; test: Induction of apoptosis in human K562 cells assessed as late apoptotic cells at 0.1 uM measured after 72 hrs by Annexin V-FITC/7-AAD staining based flow cytometric analysis relative to control; assay type: functional
[19] = system: K562; test: Induction of apoptosis in human K562 cells assessed as viable cells at 0.1 uM measured after 24 hrs by Annexin V-FITC/7-AAD staining based flow cytometric analysis relative to control; assay type: functional; conditions: read-out: Activity
[20] = system: K562; test: Induction of apoptosis in human K562 cells assessed as viable cells at 0.03 micromol/L measured after 48 hrs by Annexin V-FITC/7-AAD staining based flow cytometric analysis (reference value: 92.85 %); assay type: functional; conditions: K562, 48 h, dose 0.03 µmol/L, read-out: Activity
[21] = system: K562; test: Induction of apoptosis in human K562 cells assessed as early apoptotic cells at 1 micromol/L measured after 48 hrs by Annexin V-FITC/7-AAD staining based flow cytometric analysis (reference value: 4.2 %); assay type: functional; conditions: dose 1 µmol/L, at 1 µM
[22] = system: K562; test: Induction of apoptosis in human K562 cells assessed as necrotic cells at 0.3 micromol/L measured after 48 hrs by Annexin V-FITC/7-AAD staining based flow cytometric analysis (reference value: 0.46 %); assay type: functional; conditions: dose 0.3 µmol/L, at 0.3 µM
[23] = system: K562; test: Induction of apoptosis in human K562 cells assessed as late apoptotic cells at 0.03 micromol/L measured after 48 hrs by Annexin V-FITC/7-AAD staining based flow cytometric analysis (reference value: 2.49 %); assay type: functional; conditions: dose 0.03 µmol/L, at 0.03 µM
[24] = system: K562; test: Induction of apoptosis in human K562 cells assessed as early apoptotic cells at 0.3 micromol/L measured after 48 hrs by Annexin V-FITC/7-AAD staining based flow cytometric analysis (reference value: 4.2 %); assay type: functional; conditions: dose 0.3 µmol/L, at 0.3 µM
[25] = system: K562; test: Induction of apoptosis in human K562 cells assessed as necrotic cells at 1 micromol/L measured after 48 hrs by Annexin V-FITC/7-AAD staining based flow cytometric analysis (reference value: 0.46 %); assay type: functional; conditions: dose 1 µmol/L, at 1 µM
[26] = system: K562; test: Induction of apoptosis in human K562 cells assessed as viable cells at 1 micromol/L measured after 48 hrs by Annexin V-FITC/7-AAD staining based flow cytometric analysis (reference value: 92.85 %); assay type: functional; conditions: K562, 48 h, dose 1 µmol/L, read-out: Activity
[27] = system: K562; test: Induction of apoptosis in human K562 cells assessed as late apoptotic cells at 0.1 uM measured after 24 hrs by Annexin V-FITC/7-AAD staining based flow cytometric analysis relative to control; assay type: functional
[28] = system: K562; test: Induction of apoptosis in human K562 cells assessed as early apoptotic cells at 0.1 uM measured after 12 hrs by Annexin V-FITC/7-AAD staining based flow cytometric analysis relative to control; assay type: functional
[29] = system: K562; test: Induction of apoptosis in human K562 cells assessed as early apoptotic cells at 0.03 micromol/L measured after 48 hrs by Annexin V-FITC/7-AAD staining based flow cytometric analysis (reference value: 4.2 %); assay type: functional; conditions: dose 0.03 µmol/L, at 0.03 µM

Compound `COc1cc(OC)cc(N2CCN(C(=O)n3c4ccccc4c(=O)c4ccccc43)CC2)c1` has an Activity [1] of 0.24%, an IC50 [2] of 350 nM and an Activity [3] of 2.86%. The Activity [4] was “Active”, the viability at 0.1 µM [5] was 87.8% and the Activity [6] was 11.57%. The Activity [7] was 0.27%, the Activity [8] was 4.85% and the Activity [9] was 31.22%. The Activity [10] was “Dose-dependent effect”, the Activity [11] was 0.33% and the viability at 0.1 µM [12] was 41.5%. For the same compound, the inhibition [13] was “Active”, the Activity [14] was 4.54% and the Activity [15] was 32.32%. For the same compound, the Activity [16] was 6.24%, the viability at 0.3 µM [17] was 42.6% and the Activity [18] was 65.69%. The viability at 0.1 µM [19] was 66.3%, the viability at 0.03 µM [20] was 52.2% and the Activity [21] was 27.4%. For the same compound, the Activity [22] was 0.35%, the Activity [23] was 25.72% and the Activity [24] was 24.76%. For the same compound, the Activity [25] was 0.35%, the viability at 1 µM [26] was 41% and the Activity [27] was 7.02%. It also gave an Activity [28] of 9.02% and an Activity [29] of 21.52%.
